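Following 48 hours of exposure in 96-well plates, responses at five concentrations were used to interpolate endpoints linearly. At the TGI there is no net growth.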
Tests used:
Test in all cases: growth of human tumour cells (NCI), 48 h
[1] = test system: NCI-H226 lung
[2] = test system: U251 CNS
[3] = test system: HT29 colon
[4] = test system: SNB-75 CNS
[5] = test system: A498 renal
[6] = test system: NCI-H23 lung
[7] = test system: RXF 393 renal
[8] = test system: A549 NSCLC
[9] = test system: IGROV1 ovarian
[10] = test system: CAKI-1 renal
[11] = test system: HL-60(TB) leukemia
[12] = test system: OVCAR-4 ovarian
[13] = test system: NCI/ADR-RES ovarian
[14] = test system: HCT-15 colon
[15] = test system: DU-145 prostate
[16] = test system: SK-OV-3 ovarian
[17] = test system: K-562 leukemia
[18] = test system: NCI-H460 lung
[19] = test system: HCT-116 colon
[20] = test system: UACC-257 melanoma
[21] = test system: HOP-62 NSCLC
[22] = test system: MDA-N
[23] = test system: EKVX NSCLC
[24] = test system: SF-268 CNS
[25] = test system: ACHN renal
[26] = test system: SF-539 CNS
[27] = test system: SK-MEL-5 melanoma
[28] = test system: OVCAR-5 ovarian
[29] = test system: MCF7 breast
[30] = test system: SK-MEL-28 melanoma
[31] = test system: MOLT-4 leukemia
[32] = test system: BT-549 breast
[33] = test system: M14 melanoma
[34] = test system: SN12C renal
[35] = test system: SNB-19 CNS
[36] = test system: PC-3 prostate
[37] = test system: KM12 colon
[38] = test system: CCRF-CEM leukemia
[39] = test system: LOX IMVI melanoma
[40] = test system: OVCAR-3 ovarian
[41] = test system: TK-10 renal
[42] = test system: MDA-MB-231 breast
[43] = test system: OVCAR-8 ovarian
[44] = test system: HOP-92 NSCLC
[45] = test system: COLO 205 colon
[46] = test system: SK-MEL-2 melanoma
[47] = test system: UO-31 renal
[48] = test system: SF-295 CNS
[49] = test system: MDA-MB-435
[50] = test system: HCC-2998 colon
[51] = test system: SW-620 colon
[52] = test system: 786-0 renal
[53] = test system: MALME-3M melanoma
[54] = test system: HS 578T breast
[55] = test system: RPMI-8226 leukemia
[56] = test system: SR leukemia

Question: Which TGI [1] does the source give for `CNc1nnc(CNc2ccc(-c3nnc(NC)n3N)cc2)n1N` here?
Answer: Its TGI is > 100 µM.

Question: And the TGI [2]?
Answer: Its TGI is > 100 µM.

Question: What about the TGI [3] of the same molecule?
Answer: The TGI was > 100 µM.

Question: What about the TGI [4] of the same molecule?
Answer: Its TGI is > 100 µM.

Question: And the TGI [5]?
Answer: Its TGI is > 100 µM.

Question: What about the TGI [6] of the same molecule?
Answer: The TGI was > 100 µM.

Question: What about the TGI [7] of the same molecule?
Answer: Its TGI is > 100 µM.

Question: And the TGI [8]?
Answer: Its TGI is > 100 µM.

Question: And the TGI [9]?
Answer: Its TGI is > 100 µM.

Question: And the TGI [10]?
Answer: Its TGI is > 100 µM.

Question: And the TGI [11]?
Answer: The TGI was > 100 µM.

Question: And the TGI [12]?
Answer: Its TGI is > 100 µM.

Question: And the TGI [13]?
Answer: Its TGI is > 100 µM.

Question: What about the TGI [14] of the same molecule?
Answer: The TGI was > 100 µM.

Question: What about the TGI [15] of the same molecule?
Answer: The TGI was > 100 µM.

Question: What about the TGI [16] of the same molecule?
Answer: The TGI was > 100 µM.

Question: What about the TGI [17] of the same molecule?
Answer: The TGI was > 100 µM.

Question: And the TGI [18]?
Answer: The TGI was > 100 µM.

Question: What about the TGI [19] of the same molecule?
Answer: The TGI was > 100 µM.

Question: And the TGI [20]?
Answer: Its TGI is > 100 µM.

Question: What about the TGI [21] of the same molecule?
Answer: Its TGI is > 100 µM.

Question: What about the TGI [22] of the same molecule?
Answer: Its TGI is > 100 µM.

Question: And the TGI [23]?
Answer: Its TGI is > 100 µM.

Question: What about the TGI [24] of the same molecule?
Answer: Its TGI is > 100 µM.

Question: What about the TGI [25] of the same molecule?
Answer: Its TGI is > 100 µM.

Question: And the TGI [26]?
Answer: Its TGI is > 100 µM.

Question: What about the TGI [27] of the same molecule?
Answer: The TGI was > 100 µM.

Question: And the TGI [28]?
Answer: Its TGI is > 100 µM.

Question: And the TGI [29]?
Answer: Its TGI is > 100 µM.

Question: What about the TGI [30] of the same molecule?
Answer: The TGI was > 100 µM.

Question: What about the TGI [31] of the same molecule?
Answer: Its TGI is > 100 µM.

Question: And the TGI [32]?
Answer: The TGI was > 100 µM.

Question: What about the TGI [33] of the same molecule?
Answer: Its TGI is > 100 µM.

Question: And the TGI [34]?
Answer: Its TGI is > 100 µM.

Question: What about the TGI [35] of the same molecule?
Answer: Its TGI is > 100 µM.

Question: And the TGI [36]?
Answer: Its TGI is > 100 µM.

Question: What about the TGI [37] of the same molecule?
Answer: Its TGI is > 100 µM.

Question: What about the TGI [38] of the same molecule?
Answer: The TGI was > 100 µM.

Question: What about the TGI [39] of the same molecule?
Answer: The TGI was > 100 µM.

Question: And the TGI [40]?
Answer: The TGI was > 100 µM.

Question: And the TGI [41]?
Answer: Its TGI is > 100 µM.

Question: What about the TGI [42] of the same molecule?
Answer: Its TGI is > 100 µM.

Question: What about the TGI [43] of the same molecule?
Answer: The TGI was > 100 µM.

Question: And the TGI [44]?
Answer: Its TGI is > 100 µM.

Question: What about the TGI [45] of the same molecule?
Answer: The TGI was > 100 µM.

Question: And the TGI [46]?
Answer: The TGI was > 100 µM.

Question: And the TGI [47]?
Answer: The TGI was > 100 µM.

Question: And the TGI [48]?
Answer: The TGI was > 100 µM.

Question: What about the TGI [49] of the same molecule?
Answer: Its TGI is > 100 µM.

Question: And the TGI [50]?
Answer: Its TGI is 93.8 µM.

Question: What about the TGI [51] of the same molecule?
Answer: Its TGI is > 100 µM.

Question: And the TGI [52]?
Answer: The TGI was > 100 µM.

Question: Which TGI [1] does the source give for `CN1CC[C@]2(c3cccc(O)c3)CC(=O)/C(=C/c3ccc(Cl)c(Cl)c3)[C@@H]1C2` here?
Answer: The TGI was 4.7 µM.

Question: What about the TGI [2] of the same molecule?
Answer: Its TGI is 2.14 µM.

Question: And the TGI [3]?
Answer: Its TGI is 2.22 µM.

Question: And the TGI [4]?
Answer: Its TGI is 1.55 µM.

Question: And the TGI [5]?
Answer: Its TGI is 3.69 µM.

Question: And the TGI [6]?
Answer: Its TGI is 4.33 µM.

Question: And the TGI [7]?
Answer: The TGI was 1.92 µM.

Question: And the TGI [8]?
Answer: The TGI was 3.36 µM.

Question: And the TGI [9]?
Answer: The TGI was 3.72 µM.

Question: And the TGI [10]?
Answer: Its TGI is 2.32 µM.

Question: And the TGI [11]?
Answer: The TGI was 0.464 µM.

Question: And the TGI [13]?
Answer: The TGI was 6.76 µM.

Question: What about the TGI [53] of the same molecule?
Answer: The TGI was 2.85 µM.

Question: What about the TGI [14] of the same molecule?
Answer: Its TGI is 2.52 µM.

Question: What about the TGI [15] of the same molecule?
Answer: The TGI was 3.01 µM.

Question: What about the TGI [17] of the same molecule?
Answer: Its TGI is 1.1 µM.

Question: And the TGI [18]?
Answer: The TGI was 3.39 µM.

Question: What about the TGI [19] of the same molecule?
Answer: Its TGI is 2.47 µM.

Question: What about the TGI [20] of the same molecule?
Answer: The TGI was 2.93 µM.

Question: What about the TGI [22] of the same molecule?
Answer: The TGI was 1.83 µM.

Question: And the TGI [23]?
Answer: Its TGI is 3.03 µM.

Question: And the TGI [24]?
Answer: The TGI was 3.66 µM.

Question: What about the TGI [25] of the same molecule?
Answer: The TGI was 2.38 µM.

Question: And the TGI [54]?
Answer: The TGI was 6.59 µM.

Question: What about the TGI [26] of the same molecule?
Answer: Its TGI is 4.52 µM.

Question: What about the TGI [27] of the same molecule?
Answer: Its TGI is 3.1 µM.

Question: What about the TGI [28] of the same molecule?
Answer: The TGI was 3.18 µM.

Question: What about the TGI [29] of the same molecule?
Answer: Its TGI is 9.41 µM.

Question: And the TGI [30]?
Answer: The TGI was 3.28 µM.

Question: What about the TGI [31] of the same molecule?
Answer: The TGI was 0.71 µM.

Question: And the TGI [32]?
Answer: The TGI was 3.14 µM.

Question: What about the TGI [33] of the same molecule?
Answer: The TGI was 3.08 µM.

Question: What about the TGI [34] of the same molecule?
Answer: Its TGI is 2.29 µM.

Question: What about the TGI [35] of the same molecule?
Answer: Its TGI is 3.48 µM.

Question: And the TGI [36]?
Answer: The TGI was 1.42 µM.

Question: And the TGI [37]?
Answer: Its TGI is 2.06 µM.

Question: And the TGI [38]?
Answer: Its TGI is 2.85 µM.

Question: And the TGI [55]?
Answer: The TGI was 0.901 µM.

Question: What about the TGI [39] of the same molecule?
Answer: The TGI was 0.327 µM.

Question: What about the TGI [56] of the same molecule?
Answer: Its TGI is 10.3 µM.

Question: What about the TGI [41] of the same molecule?
Answer: Its TGI is 3.48 µM.

Question: And the TGI [42]?
Answer: The TGI was 2.4 µM.

Question: What about the TGI [43] of the same molecule?
Answer: The TGI was 4.35 µM.

Question: What about the TGI [44] of the same molecule?
Answer: The TGI was 2.57 µM.

Question: And the TGI [45]?
Answer: The TGI was 2.96 µM.

Question: And the TGI [47]?
Answer: The TGI was 2.61 µM.

Question: What about the TGI [48] of the same molecule?
Answer: Its TGI is 2.86 µM.

Question: And the TGI [49]?
Answer: Its TGI is 1.4 µM.

Question: And the TGI [50]?
Answer: The TGI was 2.77 µM.

Question: What about the TGI [51] of the same molecule?
Answer: The TGI was 2.41 µM.

Question: And the TGI [52]?
Answer: The TGI was 2.23 µM.

From PubChem BioAssay (NCI)
